Source: patent US20260176276A1, “COMPOUND FOR REGULATING AND CONTROLLING ACTIVITY OF 15-PGDH AND PREPARATION METHOD THEREFOR” (SCINNOHUB PHARMACEUTICAL CO., LTD, priority 2022, published 2026)

These molecules were tested against T1, 15-PGDH (Homo sapiens, UniProt P15428) (assay: Detection of activity of 15-PGDH kinase (enzyme inhibition, fluorescence slope)). Details: inhibitory activity against 15-PGDH enzyme; substrates PGF2α and β-NAD; fluorescence Ex/Em=340/450.
T1 construct: purchased Sino Biological Inc. 11205-H08E
T1 sequence (P15428 1-266): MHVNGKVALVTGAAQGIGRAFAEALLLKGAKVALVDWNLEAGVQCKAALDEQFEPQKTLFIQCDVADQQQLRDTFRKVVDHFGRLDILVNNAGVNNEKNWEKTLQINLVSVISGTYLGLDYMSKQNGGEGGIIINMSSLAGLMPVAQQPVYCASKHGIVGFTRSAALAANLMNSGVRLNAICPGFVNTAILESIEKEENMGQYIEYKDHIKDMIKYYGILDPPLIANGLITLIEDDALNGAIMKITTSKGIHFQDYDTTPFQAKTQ
Format: biochemical
Procedure: [table] • a. A solution of pH 7.5 containing 50 mM Tris-HCl, 0.01% Tween 20 was prepared with ultrapure water as a reaction buffer; • b. A 10 mM mother liquor of the compound to be tested was prepared with DMSO, and then the reaction buffer was used to dilute the mother liquor of the compound to be tested to obtain solution 1 of the compound to be tested at a concentration of 4000 nM, and then the solution 1 of the compound to be tested was serially diluted into solutions 2-10 of the compound to be tested at 9 concentrations with a gradient difference of three-fold. 5 μL of each of solutions 1-10 of the compound to be tested was taken and added into a 384-well plate as test wells; • c. 5 μL of the reaction buffer was added to the 384-well plate as positive control and blank control wells; • d. The reaction buffer was used to prepare a 15-PGDH protein solution at a concentration of 5 ng/μL, 5 μL of the 15-PGDH protein solution was taken and added to the test wells and positive control wells, and 5 μL of the reaction buffer was added to the blank control wells at the same time, then the plate was centrifuged at 2000 rpm for 30 seconds; • e. The reaction buffer was used to prepare 5 mM R-NAD and 2 mM PGF2α, respectively, which were mixed at 1:1 by volume to obtain a substrate mixture, 10 μL of the substrate mixture was taken and added to the test wells, positive control wells and blank control wells to start the reaction; • f. The fluorescence signal value (Ex/Em=340/450) of each well was detected continuously by using a multifunctional microplate reader. • a) Continuous fluorescence signal values were analyzed by using the “kinetic calculations-slope calculation method” in the PHERAstar Data analysis software to obtain the slope of each test well; • b) The inhibition rate % was calculated by using the following formula: [formula] • c) Calculation of IC50 and plotting of inhibition rate-dose curves: IC50 values were calculated by fitting compound concentrations and corresponding inhibition rates with nonlinear regression (dose response-variable slope) via using GraphPad Prism 6.0. The formula is shown below: [formula] wherein X is a log value of a concentration of the compound, and Y is inhibition rate %.

Row | SMILES | IC50 [nM]
1 | CCCC[S+]([O-])c1sc2nc(-c3ccc4c(c3)CN(C)C4=O)n3ccnc3c2c1N (stereo not drawn) [Example 21] | 1.5 to 4
2 | Nc1c([S+]([O-])Cc2ccccc2)sc2nc(-c3ccccc3)n3ccnc3c12 (stereo not drawn) [Example 23] | 10 to 15
3 | Nc1c([S+]([O-])C2CCCC2)sc2nc(-c3ccccc3)n3ccnc3c12 (stereo not drawn) [Example 7] | 4 to 10
4 | CCCC[S+]([O-])c1sc2nc(-c3ccccc3)n3c(C)cnc3c2c1N (stereo not drawn) [Example 19] | 1.5 to 4
5 | CCCC[S+]([O-])c1sc2nc(-c3ccncc3)n3ccnc3c2c1N (stereo not drawn) [Example 16] | 1.5 to 4
6 | CCCC[S+]([O-])c1sc2nc(-c3ncccn3)n3ccnc3c2c1N (stereo not drawn) [Example 12] | 1.5 to 4
7 | CCCC[S+]([O-])c1sc2nc(-c3ccsc3)n3ccnc3c2c1N (stereo not drawn) [Example 14] | 1.5 to 4
8 | CCCC[S+]([O-])c1sc2nc(-c3ccccc3)n3cc(C(F)(F)F)nc3c2c1N (stereo not drawn) [Example 6] | 4 to 10
9 | CCCC[S+]([O-])c1sc2nc(-c3ccccc3)n3cc(C)nc3c2c1N (stereo not drawn) [Example 5] | < 1.5
10 | Nc1c([S+]([O-])C2CCCCC2)sc2nc(-c3ccccc3)n3ccnc3c12 (stereo not drawn) [Example 8] | 4 to 10
11 | CCCC[S+]([O-])c1sc2nc(-c3ccccc3)n3ccnc3c2c1C (stereo not drawn) [Example 20] | 15 to 30
12 | CCCC[S+]([O-])c1sc2nc(-c3nccs3)n3ccnc3c2c1N (stereo not drawn) [Example 11] | 1.5 to 4
13 | CC(C)C[S+]([O-])c1sc2nc(-c3ccccc3)n3ccnc3c2c1N (stereo not drawn) [Example 25] | > 30
14 | Nc1c([S+]([O-])C2COC2)sc2nc(-c3ccccc3)n3ccnc3c12 (stereo not drawn) [Example 9] | 10 to 15

Other lines, results leading:

Row | IC50 [nM] | SMILES
15 | 1.5 to 4 | CCCC[S+]([O-])c1sc2nc(-c3ccc(C(=O)O)cc3)n3ccnc3c2c1N (stereo not drawn) [Example 22]
16 | 4 to 10 | CCCC[S+]([O-])c1sc2nc(-c3cnccn3)n3ccnc3c2c1N (stereo not drawn) [Example 10]
17 | 4 to 10 | CCCC[S+]([O-])c1sc2nc(-c3ccc(N4CCOCC4)nc3)n3ccnc3c2c1N (stereo not drawn) [Example 17]
18 | 4 to 10 | CCCC[S+]([O-])c1sc2nc(-c3ccccc3)n3ccnc3c2c1N (stereo not drawn) [Example 1, 8-(butylsulfinyl)-5-phenylimidazo[1,2-c]thieno[3,2-e]pyrimidin-9-amine]
19 | 4 to 10 | CCC(C)C[S+]([O-])c1sc2nc(-c3ccccc3)n3ccnc3c2c1N (stereo not drawn) [Example 24]
20 | 10 to 15 | CCCC[S+]([O-])c1sc2nc(-c3ccccc3)n3cnnc3c2c1N (stereo not drawn) [Example 18]
21 | 10 to 15 | CC(C)(C)[S+]([O-])c1sc2nc(-c3ccccc3)n3ccnc3c2c1N (stereo not drawn) [Example 26]
22 | 1.5 to 4 | CCCC[S+]([O-])c1sc2nc(-c3cnn(C)c3)n3ccnc3c2c1N (stereo not drawn) [Example 15]
23 | 4 to 10 | CCCC[S+]([O-])c1sc2nc(-c3ccccc3)n3c(C)nnc3c2c1N (stereo not drawn) [Example 4, 8-(butylsulfinyl)-3-methyl-5-phenylthieno[3,2-e][1,2,4]triazolo[4,3-c]pyrimidin-9-amine]
24 | < 1.5 | CCCC[S+]([O-])c1sc2nc(-c3cccnc3)n3ccnc3c2c1N (stereo not drawn) [Example 13]
